# Source: patent USRE39591E1, “6-O-substituted ketolides having antibacterial activity” (Abbott Laboratories, priority 1996, dated 2007)
# System: up to 32 different microorganisms
# Experiment: in vitro antibacterial activity (MIC), agar dilution on Brain Heart Infusion (BHI) agar with Steers replicator
# Type: cell-based
# Conditions: unit assumed
# Method: Representative compounds of the present invention were assayed in vitro for antibacterial activity as follows: Twelve petri dishes containing successive aqueous dilutions of the test compound mixed with 10 mL of sterilized Brain Heart Infusion (BHI) agar (Difco 0148-01-5) were prepared. Each plate was inoculated with 1:100 (or 1:10 for slow-growing strains, such as Micrococcus and Streptococcus) dilutions of up to 32 different microorganisms, using a Steers replicator block. The inoculated plates were incubated at 35°-37° C. for 20 to 24 hours. In addition, a control plate, using BHI agar containing no test compound, was prepared and incubated at the beginning and end of each test.
# An additional plate containing a compound having known susceptibility patterns for the organisms being tested and belonging to the same antibiotic class as the test compound was also prepared and incubated as a further control, as well as to provide test-to-test comparability. Erythromycin A was used for this purpose.
# After incubation, each plate was visually inspected. The minimum inhibitory concentration (MIC) was defined as the lowest concentration of drug yielding no growth, a slight haze, or sparsely isolated colonies on the inoculum spot as compared to the growth control.
# [1] = Candida albicans CCH 442 (code TT)
# [2] = Enterococcus faecism ATCC 8043 (code II)
# [3] = Escherichia coli DC-2 (code SS)
# [4] = Escherichia coli JUHL (code QQ)
# [5] = Micrococcus luteus ATCC 4698 (code PP)
# [6] = Micrococcus luteus ATCC 9341 (code OO)
# [7] = Mycobacterium smegmatis ATCC 114 (code UU)
# [8] = Nocardia Asteroides ATCC9970 (code VV)
# [9] = Staphylococcus aureus 1775 (code GG)
# [10] = Staphylococcus aureus A5177 (code BB)
# [11] = Staphylococcus aureus A-5278 (code CC)
# [12] = Staphylococcus aureus ATCC 6538P (code AA)
# [13] = Staphylococcus aureus CMX 553 (code FF)
# [14] = Staphylococcus aureus CMX 642A (code DD)
# [15] = Staphylococcus aureus NCTC10649M (code EE)
# [16] = Staphylococcus epidermidis 3519 (code HH)
# [17] = Streptococcus agalactiae CMX 508 (code KK)
# [18] = Streptococcus bovis A-5169 (code JJ)
# [19] = Streptococcus pyogenes 930 (code MM)
# [20] = Streptococcus pyogenes EES61 (code LL)
# [21] = Streptococcus pyogenes PIU 2548 (code NN)
smiles,measurement,setting,value
"CC[C@H]1OC(=O)[C@H](C)C(=O)[C@H](C)[C@@H](O[C@@H]2O[C@H](C)C[C@H](N(C)C)[C@H]2O)[C@@](C)(OCC=Cc2ccc(F)cc2)C[C@@H](C)C(=O)[C@H](C)[C@@H](O)[C@]1(C)O [Example 174, Compound of Formula (VIII): X is O, R is CH2—CH═CH-(4-fluorophenyl)]",MIC,[1],> 100 µg/mL
same,MIC,[2],3.1 µg/mL
same,MIC,[3],> 100 µg/mL
same,MIC,[4],> 100 µg/mL
same,MIC,Escherichia coli SS (code RR),12.5 µg/mL
same,MIC,Haemophilis influenzae DILL AMP R (code WW),128 µg/mL
same,MIC,[5],0.78 µg/mL
same,MIC,[6],0.39 µg/mL
same,MIC,[7],3.1 µg/mL
same,MIC,[8],0.78 µg/mL
same,MIC,[9],> 100 µg/mL
same,MIC,[10],3.1 µg/mL
same,MIC,[11],> 100 µg/mL
same,MIC,[12],3.1 µg/mL
same,MIC,[13],3.1 µg/mL
same,MIC,[14],3.1 µg/mL
same,MIC,[15],3.1 µg/mL
same,MIC,[16],3.1 µg/mL
same,MIC,Streptococcus Pneumonia 5649 (code ZZA),2 µg/mL
same,MIC,Streptococcus Pneumonia 5979 (code ZZ),> 128 µg/mL
same,MIC,Streptococcus Pneumonia ATCC6303 (code XX),1 µg/mL
same,MIC,Streptococcus Pneumonia GYR 1171 (code YY),1 µg/mL
same,MIC,[17],0.39 µg/mL
same,MIC,[18],0.2 µg/mL
same,MIC,[19],> 100 µg/mL
same,MIC,[20],0.39 µg/mL
same,MIC,[21],1.56 µg/mL
"CC[C@H]1OC(=O)[C@H](C)C(=O)[C@H](C)[C@@H](O[C@@H]2O[C@H](C)C[C@H](N(C)C)[C@H]2O)[C@@](C)(OCC=NOCc2cccc3ccccc23)C[C@@H](C)C(=O)[C@H](C)[C@H]2NC(=O)O[C@@]21C [Example 235, Compound of Formula (IX): L is CO, T is NH, R is —CH2CH═NOCH2(1-naphthyl)]",MIC,organism code AA,0.2 µg/mL
same,MIC,organism code BB,0.2 µg/mL
same,MIC,organism code CC,> 100 µg/mL
same,MIC,organism code DD,0.2 µg/mL
same,MIC,organism code EE,0.2 µg/mL
same,MIC,organism code FF,0.2 µg/mL
same,MIC,organism code GG,> 100 µg/mL
same,MIC,organism code HH,0.2 µg/mL
same,MIC,organism code II,0.05 µg/mL
same,MIC,organism code JJ,0.01 µg/mL
same,MIC,organism code KK,0.01 µg/mL
same,MIC,organism code LL,0.01 µg/mL
same,MIC,organism code MM,25 µg/mL
same,MIC,organism code NN,0.2 µg/mL
same,MIC,organism code OO,0.05 µg/mL
same,MIC,organism code PP,0.39 µg/mL
same,MIC,organism code QQ,> 100 µg/mL
same,MIC,organism code RR,0.78 µg/mL
same,MIC,organism code SS,> 100 µg/mL
same,MIC,organism code TT,> 100 µg/mL
same,MIC,organism code UU,0.78 µg/mL
same,MIC,organism code VV,3.1 µg/mL
same,MIC,organism code WW,4 µg/mL
same,MIC,organism code XX,0.03 µg/mL
same,MIC,organism code YY,0.03 µg/mL
same,MIC,organism code ZZ,32 µg/mL
same,MIC,organism code ZZA,0.5 µg/mL
"CCC1OC(=O)C(C)C(=O)C(C)C(OC2OC(C)CC(N(C)C)C2O)C(C)(OCC=Cc2cccc([N+](=O)[O-])c2)CC(C)C(=O)C(C)C2NC(=O)OC12C (stereo not shown) [Example 193, R is —CH2CH═CH-(3-nitrophenyl)]",MIC,[1],> 100 µg/mL
same,MIC,[2],0.02 µg/mL
same,MIC,[3],> 100 µg/mL
same,MIC,[4],100 µg/mL
same,MIC,Escherichia coli SS (code RR),0.2 µg/mL
same,MIC,[5],0.1 µg/mL
same,MIC,[6],0.01 µg/mL
same,MIC,[7],0.39 µg/mL
same,MIC,[8],0.05 µg/mL
same,MIC,[9],> 100 µg/mL
same,MIC,[10],0.1 µg/mL
same,MIC,[11],> 100 µg/mL
same,MIC,[12],0.05 µg/mL
same,MIC,[13],0.1 µg/mL
same,MIC,[14],0.1 µg/mL
same,MIC,[15],0.1 µg/mL
same,MIC,[16],0.1 µg/mL
same,MIC,[17],0.01 µg/mL
same,MIC,[18],0.01 µg/mL
same,MIC,[19],25 µg/mL
same,MIC,[20],≤ 0.005 µg/mL
same,MIC,[21],0.05 µg/mL
"CCC1OC(=O)C(C)C(=O)C(C)C(OC2OC(C)CC(N(C)C)C2O)C(C)(OCC=Cc2cnc3ccc(N)cc3c2)CC(C)C(=O)C(C)C2NC(=O)OC12C (stereo not shown) [Example 201, R is —CH2CH═CH-(6-amino-3-quinolyl)]",MIC,organism code AA,0.1 µg/mL
same,MIC,organism code BB,0.1 µg/mL
same,MIC,organism code CC,> 100 µg/mL
same,MIC,organism code DD,0.1 µg/mL
same,MIC,organism code EE,0.1 µg/mL
same,MIC,organism code FF,0.1 µg/mL
same,MIC,organism code GG,> 100 µg/mL
same,MIC,organism code HH,0.01 µg/mL
same,MIC,organism code II,0.01 µg/mL
same,MIC,organism code JJ,0.01 µg/mL
same,MIC,organism code KK,0.01 µg/mL
same,MIC,organism code LL,0.01 µg/mL
same,MIC,organism code MM,1.56 µg/mL
same,MIC,organism code NN,0.2 µg/mL
same,MIC,organism code OO,0.05 µg/mL
same,MIC,organism code PP,0.1 µg/mL
same,MIC,organism code QQ,50 µg/mL
same,MIC,organism code RR,0.1 µg/mL
same,MIC,organism code SS,50 µg/mL
same,MIC,organism code TT,> 100 µg/mL
same,MIC,organism code UU,6.2 µg/mL
same,MIC,organism code VV,0.2 µg/mL
same,MIC,organism code WW,2 µg/mL
same,MIC,organism code XX,0.03 µg/mL
same,MIC,organism code YY,0.03 µg/mL
same,MIC,organism code ZZ,16 µg/mL
same,MIC,organism code ZZA,1 µg/mL
"CC[C@H]1OC(=O)[C@H](C)C(=O)[C@H](C)[C@@H](O[C@@H]2O[C@H](C)C[C@H](N(C)C)[C@H]2O)[C@@](C)(OCC=Cc2cnc3ccccc3c2)C[C@@H](C)C(=O)[C@H](C)[C@H]2N(N)C(=O)O[C@]12C [Example 263, Compound of Formula (IX): L is CO, T is N(NH2), R is —CH2CH═CH-(3-quinolyl)]",MIC,organism code AA,0.1 µg/mL
same,MIC,organism code BB,0.1 µg/mL
same,MIC,organism code CC,> 100 µg/mL
same,MIC,organism code DD,0.1 µg/mL
same,MIC,organism code EE,0.1 µg/mL
same,MIC,organism code FF,0.05 µg/mL
same,MIC,organism code GG,> 100 µg/mL
same,MIC,organism code HH,0.1 µg/mL
same,MIC,organism code II,0.01 µg/mL
same,MIC,organism code JJ,0.01 µg/mL
same,MIC,organism code KK,0.02 µg/mL
same,MIC,organism code LL,0.02 µg/mL
same,MIC,organism code MM,50 µg/mL
same,MIC,organism code NN,0.2 µg/mL
same,MIC,organism code OO,0.02 µg/mL
same,MIC,organism code PP,0.2 µg/mL
same,MIC,organism code QQ,> 100 µg/mL
same,MIC,organism code RR,0.78 µg/mL
same,MIC,organism code SS,> 100 µg/mL
same,MIC,organism code TT,> 100 µg/mL
same,MIC,organism code UU,0.78 µg/mL
same,MIC,organism code VV,0.2 µg/mL
same,MIC,organism code WW,4 µg/mL
same,MIC,organism code XX,0.015 µg/mL
same,MIC,organism code YY,0.015 µg/mL
same,MIC,organism code ZZ,> 128 µg/mL
same,MIC,organism code ZZA,0.25 µg/mL
"CC[C@H]1OC(=O)[C@H](C)C(=O)[C@H](C)[C@@H](O[C@@H]2O[C@H](C)C[C@H](N(C)C)[C@H]2O)[C@@](C)(OCC=NOc2ccccc2)C[C@@H](C)C(=O)[C@H](C)[C@H]2NC(=O)O[C@@]21C [Example 228, Compound of Formula (IX): L is CO, T is NH, R is —CH2CH═NO(phenyl)]",MIC,organism code AA,0.39 µg/mL
same,MIC,organism code BB,0.78 µg/mL
same,MIC,organism code CC,> 100 µg/mL
same,MIC,organism code DD,0.78 µg/mL
same,MIC,organism code EE,0.78 µg/mL
same,MIC,organism code FF,0.78 µg/mL
same,MIC,organism code GG,> 100 µg/mL
same,MIC,organism code HH,0.78 µg/mL
same,MIC,organism code II,0.1 µg/mL
same,MIC,organism code JJ,0.02 µg/mL
same,MIC,organism code KK,≤ 0.005 µg/mL
same,MIC,organism code LL,0.01 µg/mL
same,MIC,organism code MM,25 µg/mL
same,MIC,organism code NN,0.78 µg/mL
same,MIC,organism code OO,0.2 µg/mL
same,MIC,organism code PP,0.39 µg/mL
same,MIC,organism code QQ,> 100 µg/mL
same,MIC,organism code RR,0.78 µg/mL
same,MIC,organism code SS,> 100 µg/mL
same,MIC,organism code TT,> 100 µg/mL
same,MIC,organism code UU,3.1 µg/mL
same,MIC,organism code VV,0.78 µg/mL
same,MIC,organism code WW,8 µg/mL
same,MIC,organism code XX,0.125 µg/mL
same,MIC,organism code YY,0.125 µg/mL
same,MIC,organism code ZZ,> 128 µg/mL
same,MIC,organism code ZZA,1 µg/mL
